Tests used:
Type in all cases: functional, cell-based
SW-620 = assay: Antiproliferative activity against human SW620 cells harboring KRAS G12V mutant assessed as inhibition of cell growth
A549 = assay: Antiproliferative activity against human A549 cells harboring KRAS G12S mutant assessed as inhibition of cell growth
DLD-1 = assay: Antiproliferative activity against human DLD-1 cells harboring KRAS G13D mutant assessed as inhibition of cell growth

Structure (SMILES) | IC50 (SW-620) | IC50 (A549) | IC50 (DLD-1)
COc1cc2nc(C)nc(N[C@H](C)c3cc(N)cc(C(F)(F)F)c3)c2cc1O[C@H]1CCOC1 | 0.0505 µM | 0.106 µM | 0.169 µM
COc1ccc(C(=O)N2CCC3(CCC(CN4CCN(C(=O)[C@H]5CC[C@H](c6cc7c(N[C@H](C)c8cc(N)cc(C(F)(F)F)c8)ncnc7n(C)c6=O)CC5)CC4)CC3)CC2)cc1N1CCC(=O)NC1=O | 0.0367 µM | 0.0522 µM | 0.107 µM

From ChEMBL document CHEMBL5523711, “Design, synthesis, and bioevaluation of SOS1 PROTACs derived from pyrido[2,3-d]pyrimidin-7-one-based SOS1 inhibitor” (Bioorg Med Chem Lett, 2024)
